Laboratory results reported in US20200069691A1, “HETEROCYCLIC COMPOUNDS AS HIV PROTEASE INHIBITORS” (Merck Sharp & Dohme Corp., priority 2016, published 2020).

Molecular target: T1, wild-type HIV-1 protease (Human immunodeficiency virus type 1 group M subtype B, UniProt P04585)
T1 construct: Escherichia coli expressed wild-type HIV-1 protease protein
Assay: Assay for Inhibition of Microbial Expressed HIV Protease (peptide substrate cleavage, LC-MS/MS readout)
Type: biochemical
Conditions: E. coli expressed wild-type HIV-1 protease, mean of at least two independent experiments, read-out: HIV Pr Enzyme HIV1 PR IC50
Procedure, shortened: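 Cleavage of Val-Ser-Gln-Asn-(β-naphthyl)Ala-Pro-Ile-Val (400 μM) by recombinant HIV-1 protease ([…]) ran 1 h at 30 °C after a 30 min room-temperature inhibitor preincubation in 50 mM sodium acetate pH 5.5. Product peak areas by LC-MS/MS gave inhibition; values average at least two independent runs.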

Going from `N#Cc1ncc2c(n1)CN(C(=O)c1cc(CN3C(=N)NC(c4ccc(F)cc4)(c4ccc(F)cc4)C3=O)ccc1Cl)C2` [Compound 363, 6-[(5-{[4,4-bis(4-fluorophenyl)-2-imino-5-oxoimidazolidin-1-yl]methyl}-2-chlorophenyl)carbonyl]-6,7-dihydro-5H-pyrrolo[3,4-d]pyrimidine-2-carbonitrile] to `N=C1NC(c2ccc(F)cc2)(c2ccc(F)cc2)C(=O)N1Cc1cccc(C(=O)N2Cc3nccnc3C2)c1` [Compound 200, 3-[3-(5,7-dihydro-6H-pyrrolo[3,4-b]pyrazin-6-ylcarbonyl)benzyl]-5,5-bis(4-fluorophenyl)-2-iminoimidazolidin-4-one], the IC50 rises from 0.00166 µM to 0.0142 µM (8.6-fold). The first is the more potent here.

Going from `CC(C)CCC1(c2ccccc2)NC(=N)N(Cc2ccc(C(F)(F)F)c(C(=O)N3CCCC3)c2)C1=O` (stereo not shown) [Compound 170, 2-imino-5-(3-methylbutyl)-5-phenyl-3-[3-(pyrrolidin-1-ylcarbonyl)-4-(trifluoromethyl)benzyl] imidazolidin-4-one] to `CC(C)CC1(c2ccccc2)NC(=N)N(Cc2ccc(C(F)(F)F)c(C(=O)N3Cc4cnc(C#N)nc4C3)c2)C1=O` (stereo not shown) [Compound 140, 6-{[5-{[2-imino-4-(2-methylpropyl)-5-oxo-4-phenylimidazolidin-1-yl]methyl}-2-(trifluoromethyl)phenyl]carbonyl}-6,7-dihydro-5H-pyrrolo[3,4-d]pyrimidine-2-carbonitrile], the IC50 falls from 0.0403 µM to 0.00293 µM (14-fold). The second is the more potent here.

`N=C1NC(c2ccccc2)(c2ccccc2)C(=O)N1Cc1cccc(C(=O)N2CCn3nc(C(F)(F)F)nc3C2)c1` [Compound 343, 2-imino-5,5-diphenyl-3-(3-{[2-(trifluoromethyl)-5,6-dihydro-[1,2,4]triazolo[1,5-a]pyrazin-7(8H)-yl]carbonyl}benzyl) imidazolidin-4-one] and `N=C1NC(c2ccccc2)(c2ccccc2)C(=O)N1Cc1cccc(C(=O)N2CCC(Oc3ccccc3)CC2)c1` [Compound 333, 2-imino-3-{3-[(4-phenoxypiperidin-1-yl)carbonyl]benzyl}-5,5-diphenylimidazolidin-4-one] are within 1.5-fold of each other in IC50: 0.0798 µM for the first, 0.0696 µM for the second.

First: C[C@H](c1cccc(C(=O)N2Cc3cncnc3C2)c1)N1C(=N)NC(c2ccc(F)cc2)(c2ccc(F)cc2)C1=O [Compound 198, 3-{(1R)-1-[3-(5,7-dihydro-6H-pyrrolo[3,4-d]pyrimidin-6-ylcarbonyl)phenyl]ethyl}-5,5-bis(4-fluorophenyl)-2-iminoimidazolidin-4-one]
Second: CC(c1cccc(C(=O)N2Cc3cncnc3C2)c1)N1C(=N)NC(c2ccccc2)(c2ccccc2)C1=O (stereo not shown) [Compound 266, 3-{1-[3-(5,7-dihydro-6H-pyrrolo[3,4-b]pyrazin-6-ylcarbonyl)phenyl]ethyl}-2-imino-5.5-diphenylimidazolidin-4-one]
The IC50 of the first is 4.9-fold lower: 0.00536 µM for the first, 0.0261 µM for the second.

Compared with `N=C1N[C@](CCCC(F)(F)F)(c2ccc(F)cc2)C(=O)N1Cc1ccc(C(F)(F)F)c(C(=O)N2Cc3cnc(-c4cccc(N5CCCC5)c4)nc3C2)c1` [Compound 62, (5R)-5-(4-fluorophenyl)-2-imino-3-[3-{[2-(3-pyrrolidin-1-ylphenyl)-5,7-dihydro-6H-pyrrolo[3,4-d]pyrimidin-6-yl]carbonyl}-4-(trifluoromethyl)benzyl]-5-(4,4,4-trifluorobutyl)imidazolidin-4-one], `N=C1N[C@](CCCC(F)(F)F)(c2ccc(F)cc2)C(=O)N1Cc1ccc(C(F)(F)F)c(C(=O)N2Cc3cnc(N4CCOCC4)nc3C2)c1` [Compound 83, (5R)-5-(4-fluorophenyl)-2-imino-3-{3-[(2-morpholin-4-yl-5,7-dihydro-6H-pyrrolo[3,4-d]pyrimidin-6-yl)carbonyl]-4-(trifluoromethyl)-benzyl}-5-(4,4,4-trifluorobutyl)imidazolidin-4-one] is 2-fold higher in IC50: 0.00686 µM for the first, 0.0139 µM for the second. The first is the more potent here.
